Laboratory results published in patent US12642270B2, “Substituted thiophene carboxamides, thiophene carboxylic acids and derivatives thereof” (Bayer Aktiengesellschaft, priority 2019, dated 2026).

Assay: Log P by HPLC on reversed phase columns (EEC directive 79/831 Annex V.A8)
Format: physicochemical
Conditions: for LogP: method [a]: LC-UV, acidic range, 0.1% formic acid in water and acetonitrile
Method in brief: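 Values come from retention times calibrated against alkan-2-ones (3–16 carbons) by linear interpolation, using reversed-phase LC-UV per EEC directive 79/831 Annex V.A8. Acetonitrile gradient 10–95% with 0.1% formic acid [a], 0.001 M ammonium acetate [b] or 0.1% phosphoric acid [c]; several values within one method separated by "+".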

For O=C(N[C@H]1CCCNC1=O)c1sc(Br)c(Br)c1F [I.0950], the LogP was 2.05^[a].

For O=C(NC1CCCCNC1=O)c1sc(Br)c(Br)c1F (stereo not drawn) [I.0951], the LogP was 2.68^[a].

With O=C(N[C@H]1CCCNC1=O)c1sc(Br)c(Br)c1Cl [I.0956] the LogP was 2.31^[a].

For O=C(NC1CCCCNC1=O)c1sc(Br)c(Br)c1Cl (stereo not drawn) [I.0957], the LogP was 2.99^[a].

In the case of O=C(NC1CCOC1=O)c1sc(Br)c(Br)c1F (stereo not drawn) [I.0958], the LogP (listed as 1.0958) is reported as 2.28^[a].

For O=C(NC1CCSC1=O)c1sc(Br)c(Br)c1Cl (stereo not drawn) [I.1005], the LogP was 3.25^[a].

For O=C(NC1CCSC1=O)c1sc(Cl)c(Cl)c1Br (stereo not drawn) [I.1006], the LogP was 3.25^[a].

For N#CC1(NC(=O)c2sc(Br)c(Br)c2F)CCC(c2ccccc2)CC1 (stereo not drawn) [I.1009], the LogP was 4.78^[a].

With O=C(N[C@H]1CCSC1=O)c1sc(Cl)c(Cl)c1Br [I.1011] the LogP was 3.24^[a].

In the case of N#CC1(NC(=O)c2sc(Br)c(Br)c2F)CCC(C2CCCCC2)CC1 (stereo not drawn) [I.1012], the LogP is reported as 6.13^[a].

With O=C(NC1CCOC1=O)c1sc(Br)c(Br)c1Cl (stereo not drawn) [I.1031] the LogP was 2.58^[a].

In the case of Cc1c(C(=O)NC2CCOC2=O)sc(C#N)c1Br (stereo not drawn) [I.1034], the LogP is reported as 1.92^[a].

CCOC(=O)C(C)(C)NC(=O)c1sc(Cl)c(Cl)c1Br [I.1062, ethyl N-[(3-bromo-4,5-dichloro-2-thienyl)carbonyl]-2-methylalaninate] showed a chromatographic logP (reversed phase HPLC columns, value in preparation example, method not marked) of 4.24.

With O=C(NC1CCOC1=O)c1sc(Br)c(Br)c1C(F)F (stereo not drawn) [I.1066] the LogP was 2.46^[a].

For N#Cc1c(Br)sc(C(=O)O)c1Cl [II.001], the LogP was 1.66^[a].

With N#Cc1c(Cl)sc(C(=O)O)c1Cl [II.002] the LogP was 1.59^[a].

With O=C(O)c1sc(Cl)c(Cl)c1C(F)F [II.003] the LogP was 2.39^[a].

For O=C(O)c1sc(Br)c(Br)c1C(F)(F)F [II.004], the LogP was 2.44^[a].

With O=C(O)c1sc(Cl)c(Br)c1F [II.005] the LogP was 2.14^[a].

With O=C(O)c1sc(Br)c(Br)c1C(F)F [II.006] the LogP was 2.46^[a].

For Cc1c(C(=O)O)sc(Br)c1C#N [II.007], the LogP was 2.03^[a].

In the case of Cc1c(C(=O)O)sc(Cl)c1C#N [II.008], the LogP is reported as 1.94^[a].

With O=C(O)c1sc(Br)c(Cl)c1F [II.009] the LogP was 2.18^[a].

With O=C(O)c1sc(Br)c(Cl)c1Cl [II.010] the LogP was 2.51^[a].

For O=C(O)c1sc(Cl)c(Br)c1Br [II.011], the LogP was 2.57^[a].

With O=C(O)c1sc(Cl)c(Br)c1Cl [II.012] the LogP was 2.44^[a].

For Cc1sc(C(=O)O)c(F)c1Br [II.013], the LogP was 2.08^[a].

With Cc1c(C(=O)O)sc(Cl)c1Br [II.014] the LogP was 2.80^[a].

For Cc1c(C(=O)O)sc(Br)c1Cl [II.015], the LogP was 2.75^[a].

In the case of Cc1c(C(=O)O)sc(C#N)c1Cl [II.016], the LogP is reported as 1.95^[a].

For Cc1c(C(=O)O)sc(I)c1Br [II.017], the LogP was 2.86^[a].

In the case of Cc1c(C(=O)O)sc(Br)c1I [II.018], the LogP is reported as 2.92^[a].

With COC(=O)c1sc(Br)c(Br)c1C(F)(F)F [II.019] the LogP was 4.08^[a].

With COC(=O)c1sc(Br)c(Cl)c1F [II.020] the LogP was 3.47^[a].

With COC(=O)c1sc(Br)c(C#N)c1Cl [II.021] the LogP was 2.87^[a].

With COC(=O)c1sc(Cl)c(C#N)c1Cl [II.022] the LogP was 2.82^[a].

With COC(=O)c1sc(Cl)c(Cl)c1C(F)F [II.023] the LogP was 3.77^[a].

For Cc1sc(C(=O)OCC(C)C)c(F)c1Br [II.024], the LogP was 4.77^[a].

With COC(=O)c1sc(Cl)c(Br)c1F [II.025] the LogP was 3.47^[a].

For COC(=O)c1sc(Cl)c(Br)c1Br [II.026], the LogP was 4.02^[a].

For COC(=O)c1sc(Cl)c(Br)c1Cl [II.027], the LogP was 3.94^[a].

For COC(=O)c1sc(Br)c(C#N)c1C [II.029], the LogP was 3.06^[a].

With CCOC(=O)c1sc(I)c(Br)c1C [II.030] the LogP was 5.03^[a].

In the case of CCOC(=O)c1sc(Br)c(I)c1C [II.031], the LogP is reported as 5.03^[a].

With CCOC(=O)c1sc(Cl)c(Br)c1C [II.032] the LogP was 5.00^[a].

In the case of N#Cc1sc(C(=O)O)cc1Cl [II.034], the LogP is reported as 1.33^[a].

For O=C(O)c1cc(Br)c(F)s1 [II.035], the LogP was 1.94^[a].

For N#Cc1sc(C(=O)O)cc1Br [II.036], the LogP was 1.41^[a].
